Where “and” joins values, the source holds several entries; their conditions need not be identical. Equal entries are not always repeated.
Tests used:
[1] = test system: C57BL/6 mice; assay: Nephrotoxic serum + Pam3CysSK4 glomerular inflammation model, 2 hours: glomerular neutrophils and circulating leukocytes; format: in vivo; settings: individual mice; 2 hours after disease induction; 50 glomerular cross sections counted
Experimental: (§1) Methods for generating nephrotoxic antibody, blood counts, processing histology, assessment of histology are disclosed in Brown H J, Lock, H R, Sacks S H, Robson M G TLR2 stimulation of intrinsic kidney cells in the induction of immune mediated glomerulonephritis, J Immunol 2006, 177(3):1925-1931, the contents of which are incorporated herein by reference. These methods were followed in the performance of the present example.
(§2) The glomerular histology was assessed at 2 hours and 24 hours following disease induction with NTS. Kidneys were fixed in Bouin's solution and stained with periodic acid-Schiff reagent. At 2 hours, the number of neutrophils (identified by their characteristic nuclear morphology) per 50 glomerular cross sections was counted. At 24 hours, the amount of glomerular thrombosis was assessed by identification of the amount of periodic acid-Schiff-positive material. In total, 50 glomeruli were assessed for each animal for signs of glomerular thrombosis, and a score was assigned as follows: grade 0, no periodic acid-Schiff-positive material; grade 1, <25%; grade 2, 25-50%; grade 3, 50-75%; grade 4, 75-100%. All sections scored for neutrophils and glomerular thrombosis were done so blindly.
200 ul of nephrotoxic serum containing 10 ug of the lipopetide Pam3CysSK4 (EMC microcollections) was given intravenously via the tail vein. […]

[2] = test system: C57BL/6 mice; assay: Nephrotoxic serum + Pam3CysSK4 glomerular inflammation model, 24 hours: albuminuria and glomerular thrombosis; format: in vivo
Experimental: as §1
Kidney samples were fixed for 4 hours in Bouin's solution, transferred into formalin, then processed and embedded in paraffin. Sections were cut at 0.5 μm thickness and stained with periodic acid-Schiff (PAS) reagent. All samples then were assessed blindly for glomerular thrombosis by identification of the amount of PAS-positive material. In total, 50 glomeruli were assessed for each mouse for signs of glomerular thrombosis, and a score was assigned to each as follows: Grade 0, no PAS-positive material; grade 1, […]; grade 2, 25 to 50%, grade 3, 50 to 75%, and grade 4, 75 to 100%. The average glomerular thrombosis score for each mouse then was calculated. Sections also were assessed blindly for glomerular crescents. A total of 50 glomeruli were assessed, and the number of crescents (two or more layers of cells in Bowman's space) was expressed as a percentage.
as §2
Mice were housed in metabolic cages for 24 hours for urine collections. The urine albumin concentration was measured by radial immunodiffusion. The sensitivity of the radial immunodiffusion assay for albumin was 0.05 mg/ml. Urine samples were diluted to 1:40 so that values fell on the standard curve.
200 ul of nephrotoxic serum containing 10 ug of the lipopetide Pam3CysSK4 (EMC microcollections) was given intravenously via the tail vein. 2 hours prior to this, mice were treated as follows. […]
The above groups were place in metabolic cages immediately after induction of disease and exsanguinated under anaesthesia 24 hours later. […] Albuminuria and thrombosis data was analysed after a logarithmic transformation.

[3] = 24 hours, versus other treatment groups

**Q.** Which results are given for C[C@]12C=CC(=O)C=C1CC[C@@H]1[C@@H]2C(=O)C[C@@]2(C)[C@H]1CC[C@]2(O)C(=O)CO [Prednisone]?
**A.** pmn/glom (neutrophils per glomerular cross section) [1]: 0.54 pmn/glom and 0.28 pmn/glom and 0.42 pmn/glom and 0.24 pmn/glom and 0.34 pmn/glom; albuminuria, in words [2, 3]: did not reach significance; glomerular thrombosis, in words [2, 3]: significantly less thrombosis than PBS but not control antibody treated mice; alb, mg/ml (albuminuria) ([2]; individual mice, 24 hour urine collection, radial immunodiffusion): 2.54 mg/mL and 4.54 mg/mL and 4.71 mg/mL and 4.98 mg/mL; Thromb/50 gloms (glomeruli showing any thrombosis out of a total of 50) ([2]; individual mice, 24 hours after disease induction, treated 2 hours before): 7 /50 gloms (3×) and 3 /50 gloms

Reference: patent US9234046B2, “Treatment of renal disease” (OPSONA Therapeutics Ltd, priority 2007, dated 2016)
